Source: patent US20230399341A1, “7-PHENYL SUBSTITUTED 2-AMINOQUINAZOLINE INHIBITORS OF HPK1” (MERCK SHARP & DOHME LLC, priority 2020, published 2023)

Molecular target: T1, Human HPK1, catalytic domain (Homo sapiens, UniProt Q92918)
T1 sequence (Q92918 1-346): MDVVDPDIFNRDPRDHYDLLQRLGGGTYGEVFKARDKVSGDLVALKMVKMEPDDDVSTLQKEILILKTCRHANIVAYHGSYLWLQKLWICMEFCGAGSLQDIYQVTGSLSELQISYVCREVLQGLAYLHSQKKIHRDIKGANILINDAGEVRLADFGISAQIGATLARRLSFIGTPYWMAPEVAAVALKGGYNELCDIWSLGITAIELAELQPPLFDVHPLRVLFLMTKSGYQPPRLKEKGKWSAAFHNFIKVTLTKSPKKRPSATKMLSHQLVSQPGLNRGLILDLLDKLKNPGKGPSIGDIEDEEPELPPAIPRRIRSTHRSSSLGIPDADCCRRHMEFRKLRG
Test: HPK1-SLP76 TR-FRET Assay
Type: biochemical
Conditions: 75 pM HPK1, ATP 10 uM, SLP76 10 nM, 30 min pre-incubation, 60 min reaction

Row | SMILES | IC50
1 | CCS(=O)(=O)Cc1ccc(Nc2ncc3c(N)c(F)c(-c4cnc5c(c4C)NCCO5)c(Cl)c3n2)cc1 [Compound 2-140, 8-chloro-N~2~-{4-[(ethylsulfonyl)methyl]phenyl}-6-fluoro-7-(8-methyl-2,3-dihydro-1H-pyrido[2,3-b][1,4]oxazin-7-yl)quinazoline-2,5-diamine] | 0.121 nM
2 | COc1cc2c(cc1Nc1ncc3ccc(-c4cncc(CN)c4)cc3n1)CNCC2 [Compound 1-49, 7-[5-(aminomethyl)pyridin-3-yl]-N-(6-methoxy-1,2,3,4-tetrahydroisoquinolin-7-yl)quinazolin-2-amine] | 3.25 nM
3 | COc1cc2c(cc1Nc1ncc3ccc(-c4cnccc4Cl)cc3n1)CNCC2 [Compound 1-38, 7-(4-chloropyridin-3-yl)-N-(6-methoxy-1,2,3,4-tetrahydroisoquinolin-7-yl)quinazolin-2-amine] | 17.9 nM
4 | CNC(=O)c1ccc(Nc2ncc3c(N)c(F)c(-c4c(Cl)nc5c(c4C)NCCO5)c(Cl)c3n2)c(OC)c1 [Compound 2-98, (+ or −)-4-{[5-amino-8-chloro-7-(6-chloro-8-methyl-2,3-dihydro-1H-pyrido[2,3-b][1,4]oxazin-7-yl)-6-fluoroquinazolin-2-yl]amino}-3-methoxy-N-methylbenzamide] | 6.73 nM
5 | CNC(=O)C1CCc2cc(Nc3ncc4c(N)c(F)c(-c5cnc6c(c5C)NCCO6)cc4n3)ccc21 (centres unmarked) [Compound 2-188, 5-{[5-amino-6-fluoro-7-(8-methyl-2,3-dihydro-1H-pyrido[2,3-b][1,4]oxazin-7-yl)quinazolin-2-yl]amino}-N-methyl-2,3-dihydro-1H-indene-1-carboxamide] | 0.0806 nM
6 | Cc1c(-c2cc3nc(Nc4ccc5c(c4)CN(C)C(C)(C)C5)ncc3c(N)c2F)cnc2c1NCCO2 (single isomer, unassigned) [Compound 2-128, 6-fluoro-7-(8-methyl-2,3-dihydro-1H-pyrido[2,3-b][1,4]oxazin-7-yl)-N2-(2,3,3-trimethyl-1,2,3,4-tetrahydroisoquinolin-7-yl)quinazoline-2,5-diamine] | 0.0337 nM
7 | COc1cc2c(cc1Nc1ncc3ccc(-c4ccc(-n5cccn5)nc4)cc3n1)CN(C)CC2 [Compound 1-107, N-(6-methoxy-2-methyl-1,2,3,4-tetrahydroisoquinolin-7-yl)-7-[6-(1H-pyrazol-1-yl)pyridin-3-yl]quinazolin-2-amine] | 488 nM
8 | COc1cc2c(cc1Nc1ncc3c(N)c(F)c(-c4cnc5c(c4C)NCCO5)cc3n1)C(C)N(C)C(C)C2 (racemic) [Compound 2-48, (R,R and S,S)-6-fluoro-N~2~-(6-methoxy-1,2,3-trimethyl-1,2,3,4-tetrahydroisoquinolin-7-yl)-7-(8-methyl-2,3-dihydro-1H-pyrido[2,3-b][1,4]oxazin-7-yl)quinazoline-2,5-diamine] | 0.696 nM
9 | COc1cc2c(cc1Nc1ncc3c(N)c(F)c(-c4cnc5c(c4C)NCCO5)c(Cl)c3n1)CN(C(C)C)CC2 (single isomer, unassigned) [Compound 2-105, (+ or −)-8-chloro-6-fluoro-N2-(2-isopropyl-6-methoxy-1,2,3,4-tetrahydroisoquinolin-7-yl)-7-(8-methyl-2,3-dihydro-1H-pyrido[2,3-b][1,4]oxazin-7-yl)quinazoline-2,5-diamine] | 0.0714 nM
10 | Cc1c(-c2cc3nc(Nc4ccc(CS(=O)(=O)C5CC5)cc4)ncc3c(N)c2F)cnc2c1NCCO2 [Compound 2-136] | 0.101 nM
11 | Cc1c(-c2cc3nc(Nc4ccc(CS(=O)(=O)C(C)C)cc4)ncc3cc2F)cnc2c1NCCO2 [Compound 1-128, 6-fluoro-N-(4-((isopropylsulfonyl)methyl)phenyl)-7-(8-methyl-2,3-dihydro-1H-pyrido[2,3-b][1,4]oxazin-7-yl)quinazolin-2-amine] | 0.0828 nM
12 | COc1ccccc1Nc1ncc2c(N)c(F)c(-c3cnc4c(c3C)NCCO4)cc2n1 [Compound 2-71, 6-fluoro-N~2~-(2-methoxyphenyl)-7-(8-methyl-2,3-dihydro-1H-pyrido[2,3-b][1,4]oxazin-7-yl)quinazoline-2,5-diamine] | 0.254 nM
13 | CNC(=O)C1CCc2cc(Nc3ncc4cc(F)c(-c5cnc6c(c5C)NCCO6)cc4n3)ccc21 (single isomer, unassigned) [Compound 1-118, (R or S)-5-{[6-fluoro-7-(8-methyl-2,3-dihydro-1H-pyrido[2,3-b][1,4]oxazin-7-yl)quinazolin-2-yl]amino}-N-methyl-2,3-dihydro-1H-indene-1-carboxamide] | 0.0363 nM
14 | CCn1cc(-c2ccc3cnc(Nc4cc5c(cc4OC)CCN(C)C5)nc3c2)cn1 [Compound 1-20, 7-(1-ethyl-1H-pyrazol-4-yl)-N-(6-methoxy-2-methyl-1,2,3,4-tetrahydroisoquinolin-7-yl)quinazolin-2-amine] | 4.61 nM
15 | COc1cc2c(cc1Nc1ncc3ccc(-c4cccnc4)cc3n1)CNCC2 [Compound 1-40, N-(6-methoxy-1,2,3,4-tetrahydroisoquinolin-7-yl)-7-(pyridin-3-yl)quinazolin-2-amine] | 8.94 nM
16 | COc1cc2c(cc1Nc1ncc3ccc(-c4ccccc4)cc3n1)CN(C)CC2 [Compound 1-1, N-(6-methoxy-2-methyl-1,2,3,4-tetrahydroisoquinolin-7-yl)-7-phenylquinazolin-2-amine] | 140 nM
17 | Cc1c(-c2cc3nc(Nc4ccc5c(c4)CN(C)CC5)ncc3c(N)c2F)cnc2c1NCC(C)(C)O2 [Compound 2-166, 6-fluoro-N~2~-(2-methyl-1,2,3,4-tetrahydroisoquinolin-7-yl)-7-(3,3,8-trimethyl-2,3-dihydro-1H-pyrido[2,3-b][1,4]oxazin-7-yl)quinazoline-2,5-diamine] | 0.0589 nM
18 | COc1cc(CS(C)(=O)=O)ccc1Nc1ncc2c(N)c(F)c(-c3cnc4c(c3C)NCCO4)c(Cl)c2n1 (single isomer, unassigned) [Compound 2-99, (+ or −)-8-chloro-6-fluoro-N~2~-{2-methoxy-4-[(methylsulfonyl)methyl]phenyl}-7-(8-methyl-2,3-dihydro-1H-pyrido[2,3-b][1,4]oxazin-7-yl)quinazoline-2,5-diamine] | 12.7 nM
19 | COc1nc(C2(C#N)CC2)ccc1Nc1ncc2c(N)c(F)c(-c3cnc4c(c3C)NCCO4)c(Cl)c2n1 [Compound 2-181, (+ or −)-1-(5-{[5-amino-8-chloro-6-fluoro-7-(8-methyl-2,3-dihydro-1H-pyrido[2,3-b][1,4]oxazin-7-yl)quinazolin-2-ylamino}-6-methoxypyridin-2-yl)cyclopropane-1-carbonitrile] | 100 nM

Continued, values first:

Row | IC50 | SMILES
20 | 22.5 nM | COc1cc2c(cc1Nc1ncc3ccc(Nc4cccc(C#N)n4)cc3n1)CN(C)CC2 [Compound 3-27, 6-({2-[(6-methoxy-2-methyl-1,2,3,4-tetrahydroisoquinolin-7-yl)amino]quinazolin-7-yl}-amino)-pyridine-2-carbonitrile]
21 | 224 nM | COc1cc2c(cc1Nc1ncc3ccc(Oc4ccc(N5CCN(C(C)=O)CC5)cc4)cc3n1)CN(C)CC2 [Compound 4-7, 1-{4-[4-({2-[(6-methoxy-2-methyl-1,2,3,4-tetrahydro-isoquinolin-7-yl)amino]-quinazolin-7-yl}oxy)phen-yl]piperazin-1-yl}ethan-1-one]
22 | 583 nM | COc1cc2c(cc1Nc1ncc3ccc(Oc4ccc(C(=O)N5CCN(C)CC5)cc4)cc3n1)CN(C)CC2 [Compound 4-6, [4-({2-[(6-methoxy-2-methyl-1,2,3,4-tetrahydro-isoquinolin-7-yl)amino]-quinazolin-7-yl}oxy)phen-yl](4-methylpiperazin-1-yl)methanone]
23 | 771 nM | COc1cc2c(cc1Nc1ncc3ccc(N4CCC[C@H](N5CCOC5=O)C4)cc3n1)CN(C)CC2 [Compound 3-50, 3-[(3S)-1-{2-[(6-methoxy-2-methyl-1,2,3,4-tetrahydroiso-quinolin-7-yl)amino]quinazolin-7-yl}piperidin-3-yl]-1,3-oxazol-idin-2-one]
24 | 91.7 nM | COc1cc2c(cc1Nc1ncc3ccc(NCC(=O)N(C)C)cc3n1)CN(C)CC2 [Compound 3-71, N~2~-{2-[(6-methoxy-2-meth-yl-1,2,3,4-tetrahydroisoquinolin-7-yl)amino]quinazolin-7-yl}-N,N-dimethylglycinamide]
25 | 13 nM | COc1cc2c(cc1Nc1ncc3ccc(Nc4ccc(C)c(S(N)(=O)=O)c4)cc3n1)CN(C)CC2 [Compound 3-44, 5-({2-[(6-methoxy-2-methyl-1,2,3,4-tetrahydroisoquinolin-7-yl)amino]quinazolin-7-yl}-amino)-2-methylbenzene-1-sulfonamide]
26 | 180 nM | COc1cc2c(cc1Nc1ncc3ccc(N[C@H]4CCC[C@@H]4O)cc3n1)CN(C)CC2 [Compound 3-58, (1S,2S)-2-({2-[(6-methoxy-2-methyl-1,2,3,4-tetrahydroiso-quinolin-7-yl)amino]quinazolin-7-yl}amino)cyclopentan-1-ol]
27 | 294 nM | COc1cc2c(cc1Nc1ncc3ccc(NC4(C(=O)N(C)C)CC4)cc3n1)CN(C)CC2 [Compound 3-66, 1-({2-[(6-methoxy-2-methyl-1,2,3,4-tetrahydroisoquinolin-7-yl)amino]quinazolin-7-yl}-amino)-N,N-dimethylcyclopro-pane-1-carboxamide]
28 | 1.67 nM | COc1cc2c(cc1Nc1ncc3ccc(Nc4nccc(CO)n4)cc3n1)CN(C)CC2 [Compound 3-35, [2-({2-[(6-methoxy-2-methyl-1,2,3,4-tetrahydroisoquinolin-7-yl)amino]quinazolin-7-yl}-amino)pyrimidin-4-yl]methanol]
29 | 391 nM | COc1cc2c(cc1Nc1ncc3ccc(N4CC5(CCOC5)OC4=O)cc3n1)CN(C)CC2 (racemic) [Compound 3-3, (S and R)-3-{2-[(6-methoxy-2-methyl-1,2,3,4-tetrahydroiso-quinolin-7-yl)amino]quinazolin-7-yl}-1,7-dioxa-3-azaspiro[4.4]-nonan-2-one]
